Consider 16 compounds from PubChem BioAssay (NCI).

Test in all cases: NCI anticancer screen, dose series, 48 h
Test [1] relates to EKVX NSCLC.
Test [2] relates to SK-MEL-2 melanoma.
Test [3] has as its system CAKI-1 renal.
For test [4], the system named is HCT-116 colon.
Test [5] deals with UACC-257 melanoma.
For test [6], the system named is NCI-H226 lung.
Test [7] concerns MOLT-4 leukemia.
For test [8], the system named is HCC-2998 colon.
Test [9] has as its system NCI-H23 lung.
The subject of test [10] is HS 578T breast.

The structures appear in SMILES notation. Where “and” joins values, the source holds several entries; their conditions need not be identical. Equal entries are not always repeated.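 Briefly, cells in 96-well plates were exposed to five compound concentrations for 48 h, and endpoints were estimated by linear interpolation. GI50 marks 50% less growth. TGI: total growth inhibition.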

In the case of `Cn1nc(C(F)(F)F)c(-c2ccc(Cl)c(C(F)(F)F)c2)c1-c1ccc(OCc2ccc(Cl)cc2)cc1O`, the GI50 was 1730 nM in [1]; 1410 nM in [2]; 1480 nM in [3]; 1.5 µM in test [4]; 1370 nM in [5]; 1.73 µM in test [6]. Besides, the GI50 is 1810 nM in test [7], 1.88 µM in [8], 1.41 µM in test [9] and 1420 nM in test [10]. The TGI was found to be 7.73 µM in [1]; 4.52 µM in test [2]; 5.62 µM in [3]; 5.46 µM in [4]; 4.09 µM in test [5]; 6.84 µM in test [6]. The TGI in [7] came out at 6.2 µM; in test [8] it was 6.73 µM; in test [9] it was 4.83 µM; in test [10], 8.98 µM.

For `C=C1CCC2C3(C)COC(c4ccc(NC(C)=O)cc4)OC3CCC2(C)C1C/C=C1/C(=O)OCC1O` (stereo not drawn), the GI50 in [1] was 2710 nM; in test [2] it was 8120 nM; in [3], 4710 nM; in test [4], 4.7 µM; in [5], 6260 nM; in test [6] it was 26.3 µM. In addition, the GI50 is 2320 nM in test [7], 7.75 µM in [8], 5.13 µM in [9] and more than 100000 nM in [10]. Also, the TGI in test [1], in test [2], in test [3], in test [4], in test [5] and in test [6] was more than 100 µM throughout. In addition, the TGI in test [7] is 24.9 µM; in test [8] it was more than 100 µM; in [9], more than 100 µM; in test [10], more than 100 µM.

For the compound `CN(C)CCCNc1nn2c(=O)c3ccccc3nc2c2ccccc12`, the GI50 in test [1] was 14400 nM; in test [2], 20100 nM; in test [3] it was 4490 nM; in [4] it was 3.72 µM; in [5], 16000 nM; in test [6] it was 5.13 µM. For the same compound, the GI50 is 2470 nM in test [7], 11.6 µM in [8], 5.89 µM in test [9] and 3670 nM in test [10]. The TGI in test [1] amounted to 51.1 µM; in test [2], 43.8 µM; in [3], 25.3 µM; in test [4], 15.7 µM; in test [5], 32.6 µM; in test [6] it was 25.5 µM. Further, the TGI turned out to be 7.16 µM in test [7], 26.9 µM in [8], 24.7 µM in test [9] and 19.9 µM in test [10].

As to `CC(=O)Oc1ccc(OC(C)=O)c2ccccc12`, the GI50 in test [1] was 10400 nM; in test [2] it was 12800 nM; in test [3], 6790 nM; in test [4], 3.59 µM; in [5], 3950 nM; in test [6], 14.4 µM. The GI50 was 2460 nM in test [7], 17.5 µM in [8], 12.7 µM in [9] and 13200 nM in test [10]. In addition, the TGI amounted to 24.7 µM in test [1]; 27 µM in test [2]; 23.3 µM in [3]; 12.9 µM in [4]; 13.8 µM in [5]; 31.3 µM in test [6]. The TGI in [7] was 8.38 µM; in test [8], 31.7 µM; in test [9], 27.5 µM; in [10] it was 67.1 µM.

For the compound `CN(C)c1ccc(/C=C2\C[C@H]3[C@@H]4CC=C5C[C@@H](N6CCCC6)CC[C@]5(C)[C@H]4CC[C@]3(C)[C@H]2O)cc1`, the GI50 in test [1] is 3670 nM; in test [2] it was 2000 nM; in test [3], 1990 nM; in test [4], 2.1 µM; in [5], 2090 nM; in test [6] it was 14 µM. The GI50 is 4980 nM in [7], 16.8 µM in test [9] and 2830 nM in [10]. Besides, the TGI is 7.72 µM and 26.4 µM in [1]; 2.35 µM and 3.89 µM in test [2]; 3.88 µM and 23.9 µM in test [3]; 1.7 µM and 4.67 µM in test [4]; 1.89 µM and 4.02 µM in test [5]; 1.86 µM in [8]. Also, the TGI in test [9] was 9.93 µM and 58 µM; in test [10] it was 2.5 µM and 7.93 µM.

For `Cc1cccc(C(C)(C)C)c1NC(=O)/C(Cc1nc2ccc([N+](=O)[O-])cc2[nH]c1=O)=N/NC(=O)C[N+](C)(C)C`, the TGI in test [1], in test [2], in test [3], in test [4], in test [5] and in test [6] was more than 100 µM each time. Further, the TGI in test [7], in test [8], in test [9] and in [10] was more than 100 µM throughout.

As to `Cc1ccc2c(c1)C(=O)c1c-2n(CCCN)c(=O)c2cc([N+](=O)[O-])ccc12`, the GI50 was 917 nM in [1]; 1370 nM in test [2]; 71.6 nM in test [3]; 0.166 µM in [4]; 1520 nM in [5]; 0.54 µM in test [6]. Further, the GI50 in test [7] was 24.4 nM; in test [8] it was 0.531 µM; in test [9], 0.356 µM; in [10], 1540 nM. In addition, the TGI in test [1] is 2.22 µM; in test [2] it was 4.15 µM; in [3], 0.419 µM; in test [4], 0.718 µM; in test [5], 4.97 µM; in test [6], 1.33 µM. The TGI was determined as 0.129 µM in [7], 1.17 µM in test [8], 1.16 µM in test [9] and 3.44 µM in test [10].

With `O=C(O)c1c(O)c2cc(Br)ccc2oc1=O`, the TGI in test [1], in test [2], in test [3], in test [4], in [5] and in test [6] was more than 100 µM each time. The TGI in test [7], in test [8], in [9] and in test [10] was more than 100 µM in each case.

For `Cc1ccc(C(=O)N(C(C)C)C(C)C)cc1N=NN(C)C`, the TGI in test [1], in test [2], in test [3], in test [4], in [5] and in [6] was more than 100 µM in each case. In addition, the TGI in test [7], in test [8], in test [9] and in test [10] was more than 100 µM in each case.

Regarding `C/C(=N\NC(N)=O)C(CN1CCCCC1)C(c1ccccc1)c1c(O)c2ccccc2oc1=O` (stereo not drawn), the TGI in test [1], in test [2], in test [3], in test [4], in [5] and in test [6] was more than 100 µM each time. The TGI is more than 94.4 µM in [7], more than 100 µM in test [8], more than 100 µM in test [9] and more than 100 µM in test [10]. In addition, the GI50 is more than 100 µM in test [9] and 79400 nM in [10].

For the compound `CC(C)C[C@H](NC(=O)[C@H](CCc1ccccc1)NC(=O)CN1CCOCC1)C(=O)N[C@@H](Cc1ccccc1)C(=O)N[C@@H](CC(C)C)C(=O)[C@@]1(C)CO1`, the GI50 in test [1] was 56.6 nM; in [2], 14.4 nM; in test [3], 109 nM; in [4], less than 0.01 µM; in [5] it was 54.7 nM; in test [6], less than 0.0122 µM. The GI50 was less than 10 nM in test [7], less than 0.0118 µM in test [8], less than 0.015 µM in test [9] and 22.4 nM in [10]. Further, the TGI in test [2] is 0.0543 µM; in test [3], 0.781 µM; in [4], less than 0.0125 µM; in test [5], 0.287 µM; in [6] it was less than 0.0175 µM; in [7] it was more than 100 µM. The values for the TGI in test [8], in [9] and in [10] were 0.0227 µM, 0.115 µM and 3.34 µM, respectively.

For `Nc1[nH]c(=O)ncc1F`, the TGI in test [1], in test [2], in test [3], in test [4], in test [5] and in test [6] was more than 100 µM each time. The TGI in test [7], in [8], in [9] and in test [10] was more than 100 µM throughout.

As to `CN1/C(=C\C(I)C(I)C2=[N+](C)c3ccccc3C2(C)C)C(C)(C)c2ccccc21` (stereo not drawn), the GI50 was 369 nM in test [1]; 390 nM in [2]; 974 nM in test [3]; 0.0852 µM in [4]; 175 nM in test [5]; 0.2 µM in test [6]. Moreover, the GI50 in test [7] was 243 nM; in test [8], 0.371 µM; in test [9], 0.114 µM; in test [10], 992 nM. For the same compound, the TGI is 36.7 µM in test [1]; 2.75 µM in test [2]; more than 38.6 µM in test [3]; 11.6 µM in test [4]; 2.24 µM in test [5]; 24.2 µM in test [6]. For the same compound, the TGI in test [7] came out at 2.07 µM; in [8], 16.9 µM; in test [9], 9.33 µM; in test [10], 39.2 µM.

For the compound `S=c1nc(-c2ccccc2)oc(=NC2CCCCC2)n1C1CCCCC1`, the GI50 in test [1] was 2140 nM; in [2], 4510 nM; in test [3] it was 1990 nM; in test [4], 4.19 µM; in [5], 2310 nM; in [6], 17.5 µM. In addition, the GI50 in [7] was 1540 nM; in test [8], 3.79 µM; in test [9], 4.21 µM; in test [10], 3300 nM. Also, the TGI in test [1] turned out to be 12 µM; in test [2], 17.8 µM; in [3] it was 6.38 µM; in test [4] it was 17.1 µM; in test [5], 5.98 µM; in [6], 37.9 µM. Also, the TGI stood at 6.01 µM in test [7], 13.7 µM in test [8], 19.6 µM in [9] and 14.5 µM in [10].

Consider `CCN1CCN(c2nc(NNC(=O)Cc3ccccc3)nc(N3CCN(C(c4ccccc4)c4ccccc4)CC3)n2)CC1`, for which the GI50 is 9990 nM in test [1]; 2100 nM in test [2]; 1700 nM in test [3]; 1.72 µM in [4]; 1830 nM in test [5]; 16.9 µM in test [6]. Moreover, the GI50 is 2630 nM in test [7], 1.71 µM in test [8], 5.51 µM in [9] and 1680 nM in test [10]. The TGI was found to be 30 µM in [1]; 4.5 µM in test [2]; 3.31 µM in test [3]; 3.13 µM in [4]; 3.79 µM in [5]; 42.7 µM in test [6]. The TGI in test [7] was 8.39 µM; in [8], 3.39 µM; in [9], 18.8 µM; in test [10], 3.79 µM.

With `CCCS(=O)(=O)Nc1ccc(F)c(C(=O)c2c[nH]c3ncc(-c4ccc(Cl)cc4)cc23)c1F`, the GI50 is 6860 nM and > 10000 nM in test [1]; 4110 nM and 3650 nM in test [2]; 2630 nM and 2810 nM in test [3]; 4.46 µM and 5.81 µM in test [4]; 48.5 nM and 64.3 nM in test [5]; 9.23 µM and > 5.91 µM in [6]. In addition, the GI50 in test [7] was 3720 nM and > 8330 nM; in [8], 5.59 µM and 10 µM; in test [9], 7.82 µM and > 10 µM; in test [10] it was 1300 nM and 1960 nM. Moreover, the TGI in test [1] was 40.7 µM and > 10 µM; in test [2] it was 14.7 µM and > 10 µM; in test [3], 16.5 µM and > 10 µM; in test [4], 16.9 µM and > 10 µM; in test [5] it was 3.71 µM and 0.604 µM; in [6], 36.7 µM and > 10 µM. Further, the TGI is 16.1 µM and > 10 µM in [7]; 17.9 µM and > 10 µM in test [8]; 26.6 µM and > 10 µM in test [9]; 6.44 µM and 9.94 µM in test [10].
